Where “and” joins values, the source holds several entries; their conditions need not be identical. Identical values can stand only once. HELM strings list units from the 5' end as sugar, base in round brackets, then linkage (d deoxyribose, r ribose, m 2'-O-methyl, p phosphodiester). Strings are as the collection lists them, not checked against the first reports. ss, as = sense and antisense strand; [fl2r] = 2'-fluoro

Here are results for 20 substances from the OligoGym collection.
Also: test system not given here.

For this data set the following is noted: siRNA.
Turning to “RNA1{r(A)p.r(A)p.r(C)p.r(C)p.r(C)p.r(A)p.r(C)p.r(C)p.r(A)p.r(C)p.r(A)p.r(G)p.r(C)p.m(U)p.r(A)p.r(G)p.r(A)p.r(A)p.r(C)p.r(U)p.r(U)}|RNA2{r(A)p.r(A)p.r(G)p.r(U)p.r(U)p.r(C)p.r(U)p.r(A)p.r(G)p.r(C)p.r(U)p.r(G)p.r(U)p.r(G)p.r(G)p.r(U)p.r(G)p.r(G)p.r(G)p.r(U)p.r(U)}$$$RNA1{StrandType:ss}|RNA2{StrandType:as}$”, the target mRNA knockdown was 84% and 82%.
“RNA1{r(A)p.r(A)p.r(C)p.r(C)p.r(C)p.r(A)p.r(C)p.r(C)p.r(A)p.r(C)p.r(A)p.r(G)p.r(C)p.r(U)p.r(A)p.r(G)p.r(A)p.r(A)p.r(C)p.r(U)p.r(U)}|RNA2{r(A)p.r(A)p.m(G)p.m(U)p.m(U)p.r(C)p.m(U)p.r(A)p.m(G)p.r(C)p.m(U)p.m(G)p.m(U)p.m(G)p.m(G)p.m(U)p.m(G)p.m(G)p.r(G)p.m(U)p.m(U)}$$$RNA1{StrandType:ss}|RNA2{StrandType:as}$” displayed a target mRNA knockdown of 15%.
On to “RNA1{r(A)p.r(A)p.r(C)p.r(C)p.r(C)p.r(A)p.r(C)p.r(C)p.r(A)p.r(C)p.r(A)p.r(G)p.r(C)p.r(U)p.r(A)p.r(G)p.r(A)p.r(A)p.r(C)p.r(U)p.r(U)}|RNA2{r(A)p.r(A)p.r(G)p.[fl2r](U)p.[fl2r](U)p.r(C)p.[fl2r](U)p.r(A)p.r(G)p.r(C)p.r(U)p.r(G)p.[fl2r](U)p.r(G)p.r(G)p.[fl2r](U)p.r(G)p.r(G)p.r(G)p.[fl2r](U)p.[fl2r](U)}$$$RNA1{StrandType:ss}|RNA2{StrandType:as}$”, for which the target mRNA knockdown is 14%.
Turning to “RNA1{r(A)p.r(A)p.r(C)p.r(U)p.r(C)p.[fl2r](U)p.r(A)p.r(C)p.[fl2r](U)p.r(G)p.[fl2r](U)p.r(G)p.r(G)p.r(A)p.r(G)p.r(U)p.r(C)p.r(G)p.r(G)p.r(T)p.r(T)}|RNA2{r(C)p.r(C)p.r(G)p.r(A)p.r(C)p.r(U)p.r(C)p.[fl2r](C)p.r(A)p.[fl2r](C)p.r(A)p.r(G)p.[fl2r](U)p.r(A)p.r(G)p.r(A)p.r(G)p.r(U)p.r(U)p.r(T)p.r(T)}$$$RNA1{StrandType:ss}|RNA2{StrandType:as}$”, the target mRNA knockdown was 65%.
“RNA1{r(A)p.r(A)p.r(C)p.r(U)p.r(C)p.m(U)p.r(A)p.r(C)p.m(U)p.r(G)p.m(U)p.r(G)p.r(G)p.r(A)p.r(G)p.r(U)p.r(C)p.r(G)p.r(G)p.r(T)p.r(T)}|RNA2{r(C)p.r(C)p.r(G)p.r(A)p.r(C)p.r(U)p.r(C)p.m(C)p.r(A)p.r(C)p.r(A)p.r(G)p.m(U)p.r(A)p.r(G)p.r(A)p.r(G)p.r(U)p.r(U)p.r(T)p.r(T)}$$$RNA1{StrandType:ss}|RNA2{StrandType:as}$”: the target mRNA knockdown came to 68%.
Under “RNA1{r(A)p.r(A)p.r(C)p.r(U)p.r(C)p.m(U)p.r(A)p.r(C)p.r(U)p.r(G)p.r(U)p.r(G)p.r(G)p.r(A)p.r(G)p.r(U)p.r(C)p.r(G)p.r(G)p.r(T)p.r(T)}|RNA2{r(C)p.r(C)p.r(G)p.r(A)p.r(C)p.r(U)p.r(C)p.r(C)p.r(A)p.r(C)p.r(A)p.r(G)p.m(U)p.r(A)p.r(G)p.r(A)p.r(G)p.r(U)p.r(U)p.r(T)p.r(T)}$$$RNA1{StrandType:ss}|RNA2{StrandType:as}$” stands 69%; under “RNA1{r(A)p.r(A)p.r(C)p.r(U)p.r(C)p.r(U)p.r(A)p.r(C)p.[fl2r](U)p.r(G)p.r(U)p.r(G)p.r(G)p.r(A)p.r(G)p.r(U)p.r(C)p.r(G)p.r(G)p.r(T)p.r(T)}|RNA2{r(C)p.r(C)p.r(G)p.r(A)p.r(C)p.r(U)p.r(C)p.[fl2r](C)p.r(A)p.r(C)p.r(A)p.r(G)p.[fl2r](U)p.r(A)p.r(G)p.r(A)p.r(G)p.r(U)p.r(U)p.r(T)p.r(T)}$$$RNA1{StrandType:ss}|RNA2{StrandType:as}$”, 72%; under “RNA1{r(A)p.r(A)p.r(C)p.r(U)p.r(U)p.r(C)p.m(U)p.r(G)p.r(G)p.r(G)p.r(A)p.r(G)p.r(C)p.r(C)p.r(U)p.r(C)p.m(C)p.r(A)p.r(A)p.r(T)p.r(T)}|RNA2{r(U)p.m(U)p.r(G)p.r(G)p.r(A)p.r(G)p.r(G)p.r(C)p.r(U)p.r(C)p.r(C)p.m(C)p.r(A)p.r(G)p.r(A)p.r(A)p.r(G)p.r(U)p.r(U)p.r(T)p.r(T)}$$$RNA1{StrandType:ss}|RNA2{StrandType:as}$”, 69%.
“RNA1{r(A)p.r(A)p.r(C)p.r(U)p.r(U)p.r(C)p.r(U)p.r(G)p.r(G)p.r(G)p.r(A)p.r(G)p.r(C)p.r(C)p.r(U)p.r(C)p.m(C)p.r(A)p.r(A)p.r(T)p.r(T)}|RNA2{r(U)p.r(U)p.r(G)p.r(G)p.r(A)p.r(G)p.r(G)p.r(C)p.r(U)p.r(C)p.r(C)p.m(C)p.r(A)p.r(G)p.r(A)p.r(A)p.r(G)p.r(U)p.r(U)p.r(T)p.r(T)}$$$RNA1{StrandType:ss}|RNA2{StrandType:as}$” had a target mRNA knockdown of 73%.
“RNA1{r(A)p.r(A)p.r(G)p.[fl2r](U)p.r(A)p.r(G)p.r(U)p.r(C)p.r(C)p.r(C)p.[fl2r](C)p.r(C)p.r(U)p.[fl2r](U)p.r(G)p.r(A)p.r(A)p.r(G)p.r(A)p.r(T)p.r(T)}|RNA2{r(U)p.r(C)p.r(U)p.r(U)p.[fl2r](C)p.r(A)p.r(A)p.r(G)p.r(G)p.r(G)p.r(G)p.r(G)p.r(A)p.r(C)p.[fl2r](U)p.r(A)p.r(C)p.r(U)p.r(U)p.r(T)p.r(T)}$$$RNA1{StrandType:ss}|RNA2{StrandType:as}$” returned a target mRNA knockdown of 64%.
“RNA1{r(A)p.r(A)p.r(G)p.m(G)p.m(A)p.r(G)p.r(A)p.r(U)p.m(C)p.m(A)p.m(A)p.r(C)p.r(A)p.r(U)p.m(U)p.m(U)p.r(U)p.r(C)p.r(A)p.r(T)p.r(T)}|RNA2{m(U)p.m(G)p.m(A)p.r(A)p.r(A)p.m(A)p.m(U)p.m(G)p.r(U)p.r(U)p.r(G)p.m(A)p.m(U)p.m(C)p.r(U)p.r(C)p.m(C)p.m(U)p.m(U)p.r(T)p.r(T)}$$$RNA1{StrandType:ss}|RNA2{StrandType:as}$” displayed a target mRNA knockdown of 38%.
Consider “RNA1{r(A)p.r(A)p.r(G)p.r(G)p.m(C)p.r(A)p.m(U)p.m(G)p.r(C)p.r(U)p.r(U)p.r(C)p.r(G)p.r(G)p.r(A)p.r(A)p.r(A)p.r(C)p.r(U)p.r(T)p.r(T)}|RNA2{r(A)p.r(G)p.r(U)p.r(U)p.r(U)p.r(C)p.r(C)p.r(G)p.r(A)p.r(A)p.r(G)p.m(C)p.r(A)p.m(U)p.r(G)p.r(C)p.r(C)p.r(U)p.r(U)p.r(T)p.r(T)}$$$RNA1{StrandType:ss}|RNA2{StrandType:as}$”, for which the target mRNA knockdown stood at 87%.
The substance “RNA1{r(A)p.r(A)p.r(G)p.r(G)p.m(C)p.r(A)p.r(U)p.r(G)p.r(C)p.r(U)p.r(U)p.r(C)p.r(G)p.r(G)p.r(A)p.r(A)p.r(A)p.r(C)p.r(U)p.r(T)p.r(T)}|RNA2{r(A)p.r(G)p.r(U)p.r(U)p.r(U)p.r(C)p.r(C)p.r(G)p.r(A)p.r(A)p.r(G)p.m(C)p.r(A)p.r(U)p.r(G)p.r(C)p.r(C)p.r(U)p.r(U)p.r(T)p.r(T)}$$$RNA1{StrandType:ss}|RNA2{StrandType:as}$” gave a target mRNA knockdown of 95%.
Under “RNA1{r(A)p.r(A)p.r(G)p.r(G)p.r(A)p.r(A)p.r(C)p.r(G)p.r(G)p.r(G)p.r(G)p.r(A)p.m(C)p.r(A)p.r(C)p.r(U)p.m(U)p.r(A)p.r(C)p.r(T)p.r(T)}|RNA2{r(G)p.m(U)p.r(A)p.r(A)p.r(G)p.m(U)p.r(G)p.r(U)p.r(C)p.r(C)p.r(C)p.r(C)p.r(G)p.r(U)p.r(U)p.r(C)p.r(C)p.r(U)p.r(U)p.r(T)p.r(T)}$$$RNA1{StrandType:ss}|RNA2{StrandType:as}$” stands 35%; under “RNA1{r(A)p.r(A)p.r(G)p.r(G)p.r(A)p.r(A)p.r(C)p.r(G)p.r(G)p.r(G)p.r(G)p.r(A)p.r(C)p.r(A)p.r(C)p.r(U)p.r(U)p.r(A)p.r(C)p.r(T)p.r(T)}|RNA2{r(G)p.m(U)p.r(A)p.r(A)p.r(G)p.r(U)p.r(G)p.r(U)p.r(C)p.r(C)p.r(C)p.r(C)p.r(G)p.r(U)p.r(U)p.r(C)p.r(C)p.r(U)p.r(U)p.r(T)p.r(T)}$$$RNA1{StrandType:ss}|RNA2{StrandType:as}$”, 38%.
With “RNA1{r(A)p.r(A)p.r(G)p.r(G)p.r(A)p.r(C)p.r(C)p.[fl2r](U)p.r(A)p.r(G)p.r(A)p.r(G)p.r(G)p.r(A)p.r(G)p.r(U)p.[fl2r](C)p.r(A)p.r(C)p.r(T)p.r(T)}|RNA2{r(G)p.[fl2r](U)p.r(G)p.r(A)p.r(C)p.r(U)p.r(C)p.r(C)p.r(U)p.r(C)p.[fl2r](U)p.r(A)p.r(G)p.r(G)p.r(U)p.r(C)p.r(C)p.r(U)p.r(U)p.r(T)p.r(T)}$$$RNA1{StrandType:ss}|RNA2{StrandType:as}$”, the target mRNA knockdown was 87%.
For “RNA1{r(A)p.r(A)p.r(G)p.r(G)p.r(A)p.r(C)p.r(C)p.[fl2r](U)p.r(A)p.r(G)p.r(A)p.r(G)p.r(G)p.r(A)p.r(G)p.r(U)p.r(C)p.r(A)p.r(C)p.r(T)p.r(T)}|RNA2{r(G)p.r(U)p.r(G)p.r(A)p.r(C)p.r(U)p.r(C)p.r(C)p.r(U)p.r(C)p.[fl2r](U)p.r(A)p.r(G)p.r(G)p.r(U)p.r(C)p.r(C)p.r(U)p.r(U)p.r(T)p.r(T)}$$$RNA1{StrandType:ss}|RNA2{StrandType:as}$”, the target mRNA knockdown came to 88%.
“RNA1{r(A)p.r(A)p.r(G)p.r(G)p.r(A)p.r(C)p.r(C)p.m(U)p.r(A)p.r(G)p.r(A)p.r(G)p.r(G)p.r(A)p.r(G)p.r(U)p.m(C)p.m(A)p.r(C)p.r(T)p.r(T)}|RNA2{r(G)p.m(U)p.r(G)p.r(A)p.r(C)p.r(U)p.r(C)p.r(C)p.r(U)p.r(C)p.m(U)p.r(A)p.r(G)p.r(G)p.r(U)p.r(C)p.r(C)p.r(U)p.r(U)p.r(T)p.r(T)}$$$RNA1{StrandType:ss}|RNA2{StrandType:as}$” showed a target mRNA knockdown of 78%.
Under “RNA1{r(A)p.r(A)p.r(G)p.r(G)p.r(A)p.r(C)p.r(C)p.m(U)p.r(A)p.r(G)p.r(A)p.r(G)p.r(G)p.r(A)p.r(G)p.r(U)p.r(C)p.r(A)p.r(C)p.r(T)p.r(T)}|RNA2{r(G)p.m(U)p.r(G)p.r(A)p.r(C)p.r(U)p.r(C)p.r(C)p.r(U)p.r(C)p.r(U)p.r(A)p.r(G)p.r(G)p.r(U)p.r(C)p.r(C)p.r(U)p.r(U)p.r(T)p.r(T)}$$$RNA1{StrandType:ss}|RNA2{StrandType:as}$” stands 80%.
Consider “RNA1{r(A)p.r(A)p.r(G)p.r(G)p.r(A)p.r(G)p.r(A)p.m(U)p.m(C)p.r(A)p.r(A)p.m(C)p.r(A)p.m(U)p.m(U)p.m(U)p.m(U)p.m(C)p.r(A)p.r(T)p.r(T)}|RNA2{m(U)p.r(G)p.r(A)p.r(A)p.r(A)p.r(A)p.m(U)p.r(G)p.m(U)p.m(U)p.r(G)p.r(A)p.m(U)p.m(C)p.m(U)p.m(C)p.m(C)p.m(U)p.m(U)p.r(T)p.r(T)}$$$RNA1{StrandType:ss}|RNA2{StrandType:as}$”, for which the target mRNA knockdown was found to be 37%.
